The first assay relates to A549 cells. Put plainly: Inhibition of cell growth in tumor cells (MTT assay). In kind it is cell-based. Conditions: Homo sapiens, 72 h compound exposure. The protocol:
Inhibition of cell growth by compounds was measured using MTT assay (Mosmann, T., Journal of Immunological Methods, 1983, 65, 55-63). Tumor cell lines were purchased from ATCC (American Type Culture Collection, Manassas, Va.). All cell lines were maintained in RPMI 1640 (Hyclone) supplemented with 10% fetal bovine serum (FBS, Hyclone), glutamine (2 mM, Hyclone), and antibiotics (penicillin 100 U/mL and streptomycin 50 μg/mL) at 37° C. in a humidified atmosphere of 5% CO2 in air. Taxol (positive control, Sigma) and compounds were dissolved in DMSO (Sigma), and the final concentration of DMSO in the medium was 1%. Tumor cells were plated in 96-well plates at densities from 4000 cells/well of a 96-well plate and allowed to adhere/grow for 24 h. They were then treated with various concentrations of drug for 72 h. 3-(4,5-Dimethylthiazol-2-yl)-2,5-diphenyltetrazolium bromide (MTT, Sigma) was used to determine the number of viable cells at the time of compound addition and the number of cells remaining after 72 h compound exposure. The number of cells remaining after 72 h was compared to the number of viable cells at the time of compound addition by measuring the absorbance at 570 nm, allowing for the calculation of growth inhibition.
All concentrations of compounds were tested in triplicate and controls were averaged over 4 wells. IC50 was calculated by plotting the concentration of compound vs the percentage of inhibition in treated wells using GraphPad Prism 5.
For `CC1=C(O)C(=O)C=C2C1=CC=C1[C@@]2(C)CC[C@@]2(C)[C@@H]3C[C@](C)(CNC(N)=O)CC[C@]3(C)CC[C@]12C` [1-(((2R,4aS,6aS,12bR,14aS,14bR)-10-hydroxy-2,4-a,6a,9,12b,14a-hexamethyl-11-oxo-1,2,3,4,4a, 5,6,6a,11,12b,13,14,14a,14b-tetradecahydropicen-2-yl)methyl)urea], the IC50 came out at 737 nM.

Compound `CC1=C(O)C(=O)C=C2C1=CC=C1[C@@]2(C)CC[C@@]2(C)[C@@H]3C[C@](C)(CNC(=O)CN(C)C)CC[C@]3(C)CC[C@]12C` [2-(dimethylamino)-N-(((2R,4aS,6aS,12bR,14aS,14bR)-10-hydroxy-2,4a,6a,9,12b,14a-hexamethyl-11-oxo-1,2,3,4,4a,5,6,6a,11,12b,13,14,14a,14b-tetradecahydropicen-2-yl)methyl)acetamide] displayed an IC50 of 159 nM.

`CC1=C(O)C(=O)C=C2C1=CC=C1[C@@]2(C)CC[C@@]2(C)[C@@H]3C[C@](C)(CN4CCOCC4)CC[C@]3(C)CC[C@]12C` [(6bS,8aS,11R,12aR,12bS,14aR)-3-hydroxy-4,6b,8a,11,12b,14a-hexamethyl-11-(morpholinomethyl)-7,8,8a,9,10,11,12,12a,12b,13,14,14a-dodecahydropicen-2(6bH)-one] returned an IC50 of 523 nM.

Compound `CC1=C(O)C(=O)C=C2C1=CC=C1[C@@]2(C)CC[C@@]2(C)[C@@H]3C[C@](C)(CN4CCCC4)CC[C@]3(C)CC[C@]12C` [(6bS,8aS,11R,12aR,12bS,14aR)-3-hydroxy-4,6b,8a,11,12b,14a-hexamethyl-11-(pyrrolidin-1-ylmethyl)-7,8,8a,9,10,11,12,12a,12b,13,14,14a-dodecahydropicen-2(6bH)-one] came in with a half-maximal inhibitory concentration (IC50) of 498 nM.

`CC1=C(O)C(=O)C=C2C1=CC=C1[C@@]2(C)CC[C@@]2(C)[C@@H]3C[C@](C)(CO)CC[C@]3(C)CC[C@]12C` [(6bS,8aS,11R,12aR,12bS,14aR)-3-hydroxy-11-(hydroxymethyl)-4,6b,8a,11,12b,14a-hexamethyl-7,8,8a,9,10,11,12,12a,12b,13,14,14a-dodecahydropicen-2(6bH)-one] registered an IC50 of 624 nM.

`CC1=C(O)C(=O)C=C2C1=CC=C1[C@@]2(C)CC[C@@]2(C)[C@@H]3C[C@](C)(CN(C)C)CC[C@]3(C)CC[C@]12C` [(6bS,8aS,11R,12aR,12bS,14aR)-11-((dimethylamino)methyl)-3-hydroxy-4,6b,8a,11,12b,14a-hexamethyl-7,8,8a,9,10,11,12,12a,12b,13,14,14a-dodecahydropicen-2(6bH)-one] displayed an IC50 of 285 nM.

Consider `CC1=C(O)C(=O)C=C2C1=CC=C1[C@@]2(C)CC[C@@]2(C)[C@@H]3C[C@](C)(CN)CC[C@]3(C)CC[C@]12C` [(6bS,8aS,11R,12aR,12bS,14aR)-11-(aminomethyl)-3-hydroxy-4,6b,8a,11,12b,14a-hexamethyl-7,8,8a,9,10,11,12,12a,12b,13,14,14a-dodecahydropicen-2(6bH)-one], for which 841 nM corresponded to half-maximal inhibition (IC50).

For the compound `COC(=O)OC[C@]1(C)CC[C@]2(C)CC[C@]3(C)C4=CC=C5C(=CC(=O)C(O)=C5C)[C@]4(C)CC[C@@]3(C)[C@@H]2C1` [((2R,4aS,6aS,12bR,14aS,14bR)-10-hydroxy-2,4-a,6a,9,12b,14a-hexamethyl-11-oxo-1,2,3,4,4a,5,6,6a,11,12b,13,14,14a,14b-tetradecahydropicen-2-yl)methyl methyl carbonate], 393 nM corresponded to half-maximal inhibition (IC50).

For `CC1=C(O)C(=O)C=C2C1=CC=C1[C@@]2(C)CC[C@@]2(C)[C@@H]3C[C@](C)(CNC(=O)N4CCN(C)CC4)CC[C@]3(C)CC[C@]12C` [N-(((2R,4aS,6aS,12bR,14aS,14bR)-10-hydroxy-2,4-a,6a,9,12b,14a-hexamethyl-11-oxo-1,2,3,4,4a,5,6,6a,11,12b,13,14,14a,14b-tetradecahydropicen-2-yl)methyl)-4-methylpiperazine-1-carboxamide], half-maximal inhibition (IC50) required 246 nM.

Compound `CC1=C(O)C(=O)C=C2C1=CC=C1[C@@]2(C)CC[C@@]2(C)[C@@H]3C[C@](C)(CNC(=O)N4CCOCC4)CC[C@]3(C)CC[C@]12C` [N-(((2R,4aS,6aS,12bR,14aS,14bR)-10-hydroxy-2,4-a,6a,9,12b,14a-hexamethyl-11-oxo-1,2,3,4,4a,5,6,6a,11,12b,13,14,14a,14b-tetradecahydropicen-2-yl)methyl)morpholine-4-carboxamide] yielded an IC50 of 358 nM.

The next assay deals with nitric oxide production.
Assay: not given
Conditions: Jin et al., J Nat Prod 65: 89 (2002); read-out: IC50, inhibition of nitric oxide production; cited from earlier work.
With `N=C(N)NN` [aminoguanidine], the IC50 is 16000 nM.

The term IC50 denotes the concentration that gives 50% inhibition.
